Measured values reported in PMC9631745 (ACS Omega, 2022).

Biological target: human transferrin (Tf; hTf) (Homo sapiens, UniProt P02787)
Experiment: isothermal titration calorimetry
Assay type: binding

Chain of human transferrin (Tf; hTf) (P02787 20-698): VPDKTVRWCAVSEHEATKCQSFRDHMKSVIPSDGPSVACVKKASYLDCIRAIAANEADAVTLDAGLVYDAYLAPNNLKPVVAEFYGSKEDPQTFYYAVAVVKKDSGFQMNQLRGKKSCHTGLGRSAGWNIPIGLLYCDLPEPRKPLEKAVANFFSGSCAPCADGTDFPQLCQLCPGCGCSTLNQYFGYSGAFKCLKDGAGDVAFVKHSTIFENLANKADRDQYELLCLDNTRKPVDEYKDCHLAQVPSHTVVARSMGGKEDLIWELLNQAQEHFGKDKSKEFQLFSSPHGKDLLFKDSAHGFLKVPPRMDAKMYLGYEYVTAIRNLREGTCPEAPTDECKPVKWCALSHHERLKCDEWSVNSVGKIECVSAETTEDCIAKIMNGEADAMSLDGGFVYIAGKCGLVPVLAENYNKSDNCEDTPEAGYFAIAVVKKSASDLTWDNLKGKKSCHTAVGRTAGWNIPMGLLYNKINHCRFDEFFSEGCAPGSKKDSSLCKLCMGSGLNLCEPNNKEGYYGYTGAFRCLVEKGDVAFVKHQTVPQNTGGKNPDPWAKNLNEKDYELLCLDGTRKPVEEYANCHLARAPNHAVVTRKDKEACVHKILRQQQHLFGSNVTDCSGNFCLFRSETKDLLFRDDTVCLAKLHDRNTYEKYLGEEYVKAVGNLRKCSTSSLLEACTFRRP

- Kd: 1450 nM
SMILES: C/C=C1\[C@H]2C=C(C)C[C@]1(N)c1ccc(=O)[nH]c1C2 [Huperzine A]
